Experimental data as given in patent US4575498A, “Method for restoring depleted purine nucleotide pools” (priority 1983, dated 1986).

Assays:
cardiac muscle = assay: AICAriboside infusion in normal myocardium: nucleotide, nucleoside and base content of cardiac muscle biopsies; details: for TAN: total adenine nucleotide
[1] = tested on: cardiac and skeletal muscle; assay: Creatine phosphate content of cardiac and skeletal muscle; format: in vivo, mongrel dogs; details: throughout the study (6.8±0.4 and 10.6±0.5 μmol/g at beginning)
Experimental: (§1) Animal Preparation--Seven adult mongrel dogs were anesthetized intramuscularly with 40 mg of morphine sulfate and intravenously with 80 mg/kg of chloralose, an endotraceal tube was inserted, and ventilation was maintained with an Emerson volume-cycled respirator and 100% oxygen. The heart was exposed through a left lateral thoracotomy, polyvinyl chloride catheters (3-mm outer diameter) were inserted into the left atrium and into the aorta through the right femoral artery, and a Statham TTQ electromagnetic flow meter probe was positioned around the ascending aorta. The aortic pressure catheter was connected to a Statham P23Db transducer (Statham Instruments, Inc., Oxnard, CA) with the zero reference at the midchest level. Aortic flow was measured with a Howell Instruments Series 1000 Flowmeter, and stroke volume and cardiac output were calculated from the aortic flow measurement. All hemodynamic data were monitored continuously throughout the course of the study. […]
(§2) After hemodynamic parameters had stabilized, regional myocardial blood flow was measured by injecting radioactively labled microspheres. […] Venous and arterial blood samples were also obtained at 42 min. of infusion, and regional myocardial blood flow was measured at 10 and 39 min. of AICAriboside infusion. […]

serum urate = assay: Serum urate concentrations; format: in vivo, mongrel dogs; details: for Serum urate concentration: P < 0.05 vs control
Experimental: (§3) Animal Preparation--Seven adult mongrel dogs were anesthetized intramuscularly with 40 mg of morphine sulfate and intravenously with 80 mg/kg of chloralose, an endotraceal tube was inserted, and ventilation was maintained with an Emerson volume-cycled respirator and 100% oxygen. The heart was exposed through a left lateral thoracotomy, polyvinyl chloride catheters (3-mm outer diameter) were inserted into the left atrium and into the aorta through the right femoral artery, and a Statham TTQ electromagnetic flow meter probe was positioned around the ascending aorta. The aortic pressure catheter was connected to a Statham P23Db transducer (Statham Instruments, Inc., Oxnard, CA) with the zero reference at the midchest level. Aortic flow was measured with a Howell Instruments Series 1000 Flowmeter, and stroke volume and cardiac output were calculated from the aortic flow measurement. All hemodynamic data were monitored continuously throughout the course of the study. In 5 of the animals, the skin of the left dorsal hindlimb was opened and the gastrocnemius muscle was identified for subsequent tissue sampling.
(§4) After hemodynamic parameters had stabilized, regional myocardial blood flow was measured by injecting radioactively labled microspheres. Tissue samples were obtained from the left ventricle and from the left gastrocnemius muscle. A venous blood sample was also obtained. AICAriboside (100 mM) was then infused into the left atrium at 1.9 ml/min. Repeat tissue samples were taken from the left ventricle at 15, 30 and 42 min. of infusion, and tissue samples were taken from the gastrocnemius muscle at 30 min. of infusion. Venous and arterial blood samples were also obtained at 42 min. of infusion, and regional myocardial blood flow was measured at 10 and 39 min. of AICAriboside infusion. AICAriboside infusion was terminated after 42 min., and tissue samples were taken from the left ventricle at 10, 20, 30 and 60 min. postinfusion and from the left gastrocnemius muscle at 2, 22 and 60 min. postinfusion. Venous blood samples were obtained at 10, 30 and 60 min. after AICAriboside infusion. In 4 of the 7 dogs, 400 mM formate was infused intravenously at the rate of 1.9 ml/min. for 42 min. prior to and during AICAriboside infusion. These same animals also received 6 mg of folinic acid as an intravenous bolus 30 min. prior to and 15 min. after initiating AICAriboside infusion.
(§5) Other Methods--Serum urate was determined by the enzymatic spectrophotometric method as previously described in Liddle et al., J. Lab. Clin. Med., 54, 909-913 (1959).

[2] = Serum urate concentrations; format: in vivo, mongrel dogs; details: dog, in vivo; of 8 mmol infused, during 42 min; minimal estimate from serum urate increase and total body water; read-out: infused AICAriboside metabolized to purine nucleotides and subsequently catabolized
Experimental: as §3, §4, §5

[3] = AICAriboside plasma concentration during infusion; format: in vivo, mongrel dogs; details: dog, after 42 min of infusion, 100 mM at 1.9 ml/min into left atrium
Experimental: as §1, §2

[4] = cardiac muscle, 10 min postinfusion
[5] = cardiac muscle, 10 min postinfusion, P < 0.05 vs control
[6] = cardiac muscle, 15 min of AICAriboside infusion
[7] = cardiac muscle, 20 min postinfusion
[8] = cardiac muscle, 20 min postinfusion, P < 0.05 vs control
[9] = cardiac muscle, 30 min of AICAriboside infusion
[10] = cardiac muscle, 30 min of AICAriboside infusion, P < 0.05 vs control
[11] = cardiac muscle, 30 min postinfusion
[12] = cardiac muscle, 30 min postinfusion, P < 0.05 vs control
[13] = cardiac muscle, 42 min of AICAriboside infusion
[14] = cardiac muscle, 60 min postinfusion

NC(=O)c1ncn([C@@H]2O[C@H](CO)[C@@H](O)[C@H]2O)c1N [AICAriboside, 5-amino-4-imidazolecarboxamide riboside]
myocardial content of CTP (cardiac muscle; AICAriboside infusion): no detectable change | mean content of AICAriboside in cardiac muscle greater than that of skeletal muscle (cardiac muscle; after 30 min of infusion): 66% | adenylosuccinate in biopsies (cardiac muscle; before, during or after infusion, lower limit of detection 3 nmol/g, wet weight): not detectable | adenylate energy charge (cardiac muscle; cardiac muscle, 0.929±0.003 before infusion, during course of experiment): did not vary | ADP (cardiac muscle; [4]): 0.83 ± 0.05 μmol/g, wet weight | AMP (cardiac muscle; [4]): 0.054 ± 0.007 μmol/g, wet weight | Hyp (hypoxanthine) (cardiac muscle; [4]): 0.016 ± 0.008 μmol/g, wet weight | Ino (inosine) (cardiac muscle; [4]): 0.009 ± 0.001 μmol/g, wet weight | ATP (cardiac muscle; [5]): 6.07 ± 0.17 μmol/g, wet weight | IMP (cardiac muscle; [5]): 0.018 ± 0.003 μmol/g, wet weight | ADP (cardiac muscle; [6]): 0.77 ± 0.06 μmol/g, wet weight | AMP (cardiac muscle; [6]): 0.056 ± 0.008 μmol/g, wet weight | ATP (cardiac muscle; [6]): 5.77 ± 0.24 μmol/g, wet weight | IMP (cardiac muscle; [6]): 0.020 ± 0.007 μmol/g, wet weight | ADP (cardiac muscle; [7]): 0.81 ± 0.04 μmol/g, wet weight | AMP (cardiac muscle; [7]): 0.054 ± 0.005 μmol/g, wet weight | Hyp (hypoxanthine) (cardiac muscle; [7]): 0.007 ± 0.002 μmol/g, wet weight | IMP (cardiac muscle; [7]): 0.017 ± 0.005 μmol/g, wet weight | Ino (inosine) (cardiac muscle; [7]): 0.007 ± 0.001 μmol/g, wet weight | ATP (cardiac muscle; [8]): 5.83 ± 0.14 μmol/g, wet weight | ADP (cardiac muscle; [9]): 0.82 ± 0.03 μmol/g, wet weight | AMP (cardiac muscle; [9]): 0.050 ± 0.005 μmol/g, wet weight | Hyp (hypoxanthine) (cardiac muscle; [9]): 0.013 ± 0.006 μmol/g, wet weight | IMP (cardiac muscle; [9]): 0.030 ± 0.021 μmol/g, wet weight | Ino (inosine) (cardiac muscle; [9]): 0.012 ± 0.001 μmol/g, wet weight | ATP (cardiac muscle; [10]): 5.89 ± 0.16 μmol/g, wet weight | ADP (cardiac muscle; [11]): 0.84 ± 0.03 μmol/g, wet weight | AMP (cardiac muscle; [11]): 0.055 ± 0.006 μmol/g, wet weight | Hyp (hypoxanthine) (cardiac muscle; [11]): 0.003 ± 0.002 μmol/g, wet weight | Ino (inosine) (cardiac muscle; [11]): 0.009 ± 0.002 μmol/g, wet weight | ATP (cardiac muscle; [12]): 5.98 ± 0.07 μmol/g, wet weight | IMP (cardiac muscle; [12]): 0.016 ± 0.003 μmol/g, wet weight | ADP (cardiac muscle; [13]): 0.77 ± 0.03 μmol/g, wet weight | AMP (cardiac muscle; [13]): 0.053 ± 0.007 μmol/g, wet weight | ATP (cardiac muscle; [13]): 5.77 ± 0.28 μmol/g, wet weight | IMP (cardiac muscle; cardiac muscle, 42 min of AICAriboside infusion, P < 0.05 vs control): 0.019 ± 0.006 μmol/g, wet weight | ADP (cardiac muscle; [14]): 0.82 ± 0.04 μmol/g, wet weight | AMP (cardiac muscle; [14]): 0.052 ± 0.006 μmol/g, wet weight | ATP (cardiac muscle; [14]): 5.72 ± 0.27 μmol/g, wet weight | Hyp (hypoxanthine) (cardiac muscle; [14]): 0.001 ± 0.001 μmol/g, wet weight | Ino (inosine) (cardiac muscle; [14]): 0.006 ± 0.001 μmol/g, wet weight | IMP (cardiac muscle; cardiac muscle, 60 min postinfusion, P < 0.05 vs control): 0.017 ± 0.003 μmol/g, wet weight | increase in IMP content (cardiac muscle; cardiac muscle, AICAriboside infusion): 3-4 fold | maximum UTP content (cardiac muscle; cardiac muscle, from basal 0.126±0.009, p<0.005): 0.157±0.006 μmol/g, wet weight | guanine nucleotide content (GDP+GTP) (cardiac muscle; cardiac muscle, significant at one time point only): tended to increase | dogs with guanine nucleotide pool remaining elevated (cardiac muscle; cardiac muscle, up to 60 min after infusion discontinued): 6 of 7 | adenosine content (cardiac muscle; cardiac or skeletal muscle, during infusion): did not increase | AMP and ADP content change (cardiac muscle; cardiac tissue, any time point): did not change significantly | increased ATP content (cardiac muscle; cardiac tissue, from 5.55±0.17, p<0.02): 6.07±0.17 μmol/g, wet weight | accumulation of AICAriboside-TP (cardiac muscle; cardiac vs skeletal muscle, quantitated with extinction coefficient of AICAR): greater in cardiac muscle | maximum TAN (total adenine nucleotide) (cardiac muscle; heart muscle, from basal 6.40±0.20, p<0.005): 6.96±0.20 μmol/g, wet weight | content of NAD^+ (cardiac muscle; heart, throughout infusion, did not vary): 0.64 ± 0.01 µmol/g | UTP pool increase (cardiac muscle; myocardial cells, following AICAriboside infusion): 25% | content of inosine and hypoxanthine (cardiac muscle; myocardial, throughout the study): only minimally increased | TAN (cardiac muscle; [5]): 6.96 ± 0.20 μmol/g, wet weight | TAN (cardiac muscle; [6]): 6.59 ± 0.29 μmol/g, wet weight | TAN (cardiac muscle; [8]): 6.70 ± 0.10 μmol/g, wet weight | TAN (cardiac muscle; [10]): 6.77 ± 0.16 μmol/g, wet weight | TAN (cardiac muscle; [12]): 6.87 ± 0.10 μmol/g, wet weight | TAN (cardiac muscle; [13]): 6.59 ± 0.27 μmol/g, wet weight | TAN (cardiac muscle; [14]): 6.59 ± 0.24 μmol/g, wet weight | creatine phosphate content [1]: did not vary significantly | Serum urate concentration (serum urate; 10 min postinfusion): 3.5 ± 0.5 mg/dL | Serum urate concentration (serum urate; 30 min postinfusion): 2.9 ± 0.2 mg/dL | Serum urate concentration (serum urate; 42 min of AICAriboside infusion): 3.5 ± 0.4 mg/dL | Serum urate concentration (serum urate; 60 min postinfusion): 2.40 ± 0.4 mg/dL | increase in mean serum urate concentration (serum urate; following infusion of 8 mmol of AICAriboside): 3.7 fold | metabolised at 0.7 h [2]: ≥ 25% | concentration at 0.7 h [3]: 336 ± 26 µM
